# Test results as given in patent publication US6645959B1, “Method for treating postoperative ileus” (Warner-Lambert Company, priority 2000, dated 2003).
# Structures can show the parent of a compound that is named as a salt.
# Experiments:
# rats [1] = details: rat, in vivo, 2.5 mg/kg
# [2] = Pharmacokinetics in healthy subjects (Phase 1)
# rats [3] = assay: Reproductive performance and fertility studies in rats; type: in vivo
# [4] = test system: AVP-induced dermal vasoconstriction; assay: AVP-induced dermal vasoconstriction in Phase 1 subjects; type: in vivo, human; details: subjects at 50 mg IV
# [5] = test system: urinary output (V2 antagonism); assay: Urinary output and osmolality in conscious dogs (V2 antagonism); type: in vivo
# [6] = test system: AVP-induced platelet aggregation (V1A antagonist activity); assay: AVP-induced platelet aggregation in Phase 1 subjects; type: in vivo, human; details: subjects at 20 mg/day orally or 2.5 mg IV
# bone marrow of rats = assay: Clastogenicity in bone marrow of rats; type: in vivo
# [7] = test system: AVP-induced pressor response (V1A antagonism); assay: Antagonism of AVP-induced pressor response in rats (oral); type: in vivo; details: given orally to rats
# bacteria = assay: Mutagenicity in bacteria; type: cell-based
# human lymphocytes = assay: Clastogenicity in human lymphocytes in vitro; type: cell-based
# dogs = details: dog, in vivo, 2 mg/kg
# [8] = test system: AVP-induced pressor response (V1A antagonism); assay: Antagonism of AVP-induced pressor response in dogs (IV); type: in vivo
# rats [9] = assay: Teratogenicity in rats; type: in vivo
# rabbits = assay: Teratogenicity in rabbits; type: in vivo
# bone marrow in dogs = assay: 2- and 13-week oral toxicity studies in dogs; type: in vivo
# [10] = Oral pharmacokinetics in the dog; type: in vivo
# Excerpt: (§1) There is a marked food effect with absorption reduced by >50% in dogs after a meal.
# [11] = Oral pharmacokinetics in the rat; type: in vivo
# Excerpt: as §1
# female rats = details: 13-week oral study, all doses
# healthy subjects = assay: Safety in Phase 1 subjects; type: in vivo, human
# Excerpt: These observations were considered related to antagonism of V2 receptors and not a safety concern. Vital signs (blood pressure and heart rate) were unaffected by YM087.
# [12] = test system: aquaretic action (V2 receptor antagonism); assay: Aquaretic action in normal subjects (V2 receptor antagonism); type: in vivo, human
# [13] = test system: dogs with heart failure induced by rapid right ventricular pacing; assay: Heart failure induced by rapid right ventricular pacing in dogs; type: in vivo; details: IV 0.1 mg/kg
# [14] = oral 20 mg, single dose combination
structure (smiles),measurement,setting,value
"Cc1nc2c([nH]1)-c1ccccc1N(C(=O)c1ccc(NC(=O)c3ccccc3-c3ccccc3)cc1)CC2 [YM087, N-[4-(2-methyl-4,5,6-tetrahydromidazo [4,5-d][1]benzazepin-6-ylcarbonyl)phenyl]biphenyl-2-carboxamide hydrochloride]",toxicity in 4-week IV study,rats [1],No toxicity was observed
same,half-life,"[2]; human, plasma",4 to 5 h
same,bioavailability,"[2]; human, plasma, oral",43 to 59%
same,Tmax,"[2]; human, plasma, po",~1 h
same,bioavailability,"[2]; human, plasma, po, 60 mg",44%
same,effect of 0.5 mg IV digoxin on pharmacokinetics,[2]; [14],not affected
same,effect of 25 mg oral captopril on pharmacokinetics,[2]; [14],not affected
same,plasma levels after the second dose,"[2]; repeated BID oral doses, 60 mg",unexpectedly high plasma levels
same,female fertility findings,rats [3]; females given 100 mg/kg orally for 2 weeks prior to mating with untreated males,"reduced fertility index, increased implantation loss, and decreased live fetuses"
same,reproductive performance of male rats,rats [3]; male rats,did not affect
same,AVP-induced dermal vasoconstriction,[4],Total inhibition
same,urinary output,"[5]; conscious dogs, oral 0.03 to 0.3 mg/kg, dose-related",increased urinary output
same,urinary osmolality,"[5]; conscious dogs, oral 0.03 to 0.3 mg/kg, reduced from 1500",< 100 mOsm/kg H2O
same,effect on urinary sodium (Na) or potassium (K) excretion,[5]; unlike furosemide,little or no effect
same,AVP-induced platelet aggregation,[6],Inhibition of AVP-induced platelet aggregation
same,clastogenicity,bone marrow of rats,not clastogenic
same,ID50 (dose that reduced the AVP response by 50%),[7],0.32 mg/kg
same,mutagenicity,bacteria,not mutagenic
same,clastogenicity,human lymphocytes,not clastogenic
same,toxicity in 4-week IV study,dogs,No toxicity was observed
same,ID50 (dose that reduced the AVP response by 50%),[8],0.026 mg/kg
same,teratogenicity,rats [9],not teratogenic
same,teratogenicity,rabbits,not teratogenic
same,peripheral blood counts,"bone marrow in dogs; affected dogs, 13-week oral study","Decreased peripheral erythrocyte, leukocyte, and/or platelet counts"
same,reversibility of bone marrow and peripheral blood changes,bone marrow in dogs; dogs,reversible
same,half-life,"[10]; in vivo, dogs, read-out: elimination half-life (converted)",2 h
same,time to peak concentrations,[10]; oral,1 h
same,half-life,"[11]; in vivo, rats, read-out: elimination half-life (converted)",1 h
same,time to peak concentrations,[11]; oral,0.5 h
same,uterine weights,female rats,decreased at all doses
same,overall safety,healthy subjects; approximately 250 subjects treated,no major safety concerns were identified
same,urinary and plasma osmolarity at higher doses,"healthy subjects; higher doses, related to V2 antagonism",urinary osmolarity decreased and plasma osmolarity increased
same,biochemical or hematological laboratory parameters,"healthy subjects; human, in vivo",No drug-related trend was observed
same,other adverse events,"healthy subjects; human, in vivo","flushes, a sensation of cold extremities, abdominal complaints, abnormal stools, syncope, dizziness, palpitations, and postural hypotension"
same,vital signs (blood pressure and heart rate),"healthy subjects; human, in vivo",unaffected
same,serious event in patient with severe congestive heart failure,"healthy subjects; one patient, 80 mg/day for 4 days",generalized tonic clonic seizure
same,number of subjects with minor reversible decreases in white blood cell count,healthy subjects; one subject on placebo also affected,Three
same,most frequent adverse events,healthy subjects; regardless of treatment association,mild or moderate thirst and mild headache
same,tolerability of aquaretic effects,"[12]; 120 mg QD or 60 mg BID orally or 50 mg IV, normal subjects",too uncomfortable in normal subjects to be tolerable
same,duration of increased urine production rate postdosing,[12]; IV 50 mg/day,≤ 6 h
same,duration of increased urine production rate postdosing,[12]; IV doses up to 250 μg/kg,up to 3 hours
same,dose at which aquaretic action with decrease in urine osmolarity starts,"[12]; IV, normal subjects",0.05 mg/kg
same,dose at which aquaretic action with decrease in urine osmolarity starts,"[12]; oral, normal subjects",15 mg
same,cardiac function,[13],significantly improved the depressed cardiac function
same,water diuresis,[13],produced a water diuresis
